Results published in the NIST ThermoML archive (doi:10.1016/j.jct.2011.12.035).
Numbers after ± are expanded uncertainties.

Test: xn = mol fraction of the nth substance listed
Conditions: Gas, Buoyancy - hydrostatic balance with magnetic suspension - one sinker

N#N [nitrogen] + O=C=O
mass density (250.01 K, 994.48 kPa, x2 = 0.2): 15.21 ± 0.037 kg/m3
mass density (250.02 K, 1979.3 kPa, x2 = 0.2): 30.827 ± 0.075 kg/m3
mass density (250.02 K, 4032.4 kPa, x2 = 0.2): 65.204 ± 0.16 kg/m3
mass density (250.02 K, 6013.2 kPa, x2 = 0.2): 100.543 ± 0.24 kg/m3
mass density (250.02 K, 8000.9 kPa, x2 = 0.2): 137.785 ± 0.33 kg/m3
mass density (250.02 K, 10004 kPa, x2 = 0.2): 176.401 ± 0.43 kg/m3
mass density (250.02 K, 12010 kPa, x2 = 0.2): 215.101 ± 0.52 kg/m3
mass density (250.02 K, 14018 kPa, x2 = 0.2): 252.741 ± 0.61 kg/m3
mass density (250.02 K, 16027 kPa, x2 = 0.2): 288.385 ± 0.7 kg/m3
mass density (250.02 K, 18039 kPa, x2 = 0.2): 321.449 ± 0.78 kg/m3
mass density (250.02 K, 19633 kPa, x2 = 0.2): 345.629 ± 0.83 kg/m3
mass density (250.04 K, 2996.3 kPa, x2 = 0.2): 47.559 ± 0.12 kg/m3
mass density (250.04 K, 4997.5 kPa, x2 = 0.2): 82.144 ± 0.2 kg/m3
mass density (250.05 K, 488.24 kPa, x2 = 0.2): 7.397 ± 0.018 kg/m3
mass density (250.05 K, 997.91 kPa, x2 = 0.2): 15.262 ± 0.037 kg/m3
mass density (250.05 K, 6997.7 kPa, x2 = 0.2): 118.767 ± 0.29 kg/m3
mass density (250.05 K, 8998.8 kPa, x2 = 0.2): 156.893 ± 0.38 kg/m3
mass density (250.05 K, 11001 kPa, x2 = 0.2): 195.63 ± 0.47 kg/m3
mass density (250.05 K, 13005 kPa, x2 = 0.2): 233.864 ± 0.57 kg/m3
mass density (250.05 K, 15008 kPa, x2 = 0.2): 270.511 ± 0.65 kg/m3
mass density (250.05 K, 17012 kPa, x2 = 0.2): 304.796 ± 0.74 kg/m3
mass density (250.05 K, 17639 kPa, x2 = 0.2): 314.981 ± 0.76 kg/m3
mass density (274.99 K, 998.23 kPa, x2 = 0.2): 13.8 ± 0.034 kg/m3
mass density (274.99 K, 1987.8 kPa, x2 = 0.2): 27.804 ± 0.067 kg/m3
mass density (274.99 K, 3995.6 kPa, x2 = 0.2): 57.18 ± 0.14 kg/m3
mass density (274.99 K, 5997.2 kPa, x2 = 0.2): 87.563 ± 0.21 kg/m3
mass density (274.99 K, 7998.9 kPa, x2 = 0.2): 118.772 ± 0.29 kg/m3
mass density (274.99 K, 10000 kPa, x2 = 0.2): 150.404 ± 0.36 kg/m3
mass density (274.99 K, 12005 kPa, x2 = 0.2): 182.017 ± 0.44 kg/m3
mass density (274.99 K, 14006 kPa, x2 = 0.2): 213.01 ± 0.52 kg/m3
mass density (274.99 K, 16009 kPa, x2 = 0.2): 243.011 ± 0.59 kg/m3
mass density (274.99 K, 18043 kPa, x2 = 0.2): 272.044 ± 0.66 kg/m3
mass density (274.99 K, 19430 kPa, x2 = 0.2): 290.888 ± 0.71 kg/m3
mass density (275.02 K, 996.58 kPa, x2 = 0.501): 16.162 ± 0.039 kg/m3
mass density (275.02 K, 1993.3 kPa, x2 = 0.501): 33.323 ± 0.081 kg/m3
mass density (275.02 K, 2996.6 kPa, x2 = 0.501): 51.754 ± 0.13 kg/m3
mass density (275.02 K, 3997.4 kPa, x2 = 0.501): 71.374 ± 0.17 kg/m3
mass density (275.02 K, 4998.7 kPa, x2 = 0.501): 92.411 ± 0.23 kg/m3
mass density (275.02 K, 5999.5 kPa, x2 = 0.501): 114.98 ± 0.28 kg/m3
mass density (275.02 K, 7003.4 kPa, x2 = 0.501): 139.278 ± 0.34 kg/m3
mass density (275.02 K, 8006 kPa, x2 = 0.501): 165.225 ± 0.4 kg/m3
mass density (275.02 K, 9125.5 kPa, x2 = 0.501): 196.081 ± 0.48 kg/m3
mass density (275.02 K, 10029 kPa, x2 = 0.501): 222.169 ± 0.54 kg/m3
mass density (275.02 K, 11018 kPa, x2 = 0.501): 251.523 ± 0.61 kg/m3
mass density (275.02 K, 12025 kPa, x2 = 0.501): 281.541 ± 0.69 kg/m3
mass density (275.02 K, 13025 kPa, x2 = 0.501): 310.916 ± 0.76 kg/m3
mass density (275.03 K, 14032 kPa, x2 = 0.501): 339.405 ± 0.82 kg/m3
mass density (275.03 K, 15032 kPa, x2 = 0.501): 366.266 ± 0.89 kg/m3
mass density (275.03 K, 15926 kPa, x2 = 0.501): 388.806 ± 0.94 kg/m3
mass density (275.04 K, 17027 kPa, x2 = 0.501): 414.634 ± 1 kg/m3
mass density (275.04 K, 17563 kPa, x2 = 0.501): 426.437 ± 1 kg/m3
mass density (299.95 K, 2996.2 kPa, x2 = 0.2): 38.386 ± 0.093 kg/m3
mass density (299.95 K, 4996.3 kPa, x2 = 0.2): 64.833 ± 0.16 kg/m3
mass density (299.95 K, 6997.1 kPa, x2 = 0.2): 91.756 ± 0.22 kg/m3
mass density (299.95 K, 8997.6 kPa, x2 = 0.2): 118.906 ± 0.29 kg/m3
mass density (299.95 K, 11032 kPa, x2 = 0.2): 146.5 ± 0.35 kg/m3
mass density (299.95 K, 13037 kPa, x2 = 0.2): 173.362 ± 0.42 kg/m3
mass density (299.95 K, 15002 kPa, x2 = 0.2): 199.149 ± 0.48 kg/m3
mass density (299.95 K, 17077 kPa, x2 = 0.2): 225.549 ± 0.55 kg/m3
mass density (299.95 K, 18151 kPa, x2 = 0.2): 238.85 ± 0.58 kg/m3
mass density (299.96 K, 492.88 kPa, x2 = 0.2): 6.193 ± 0.015 kg/m3
mass density (299.96 K, 984.74 kPa, x2 = 0.2): 12.423 ± 0.03 kg/m3
mass density (299.96 K, 995.87 kPa, x2 = 0.501): 14.686 ± 0.036 kg/m3
mass density (299.96 K, 15998 kPa, x2 = 0.501): 308.658 ± 0.75 kg/m3
mass density (299.97 K, 1995.1 kPa, x2 = 0.501): 30.061 ± 0.073 kg/m3
mass density (299.97 K, 2998.8 kPa, x2 = 0.501): 46.195 ± 0.11 kg/m3
mass density (299.97 K, 4000.2 kPa, x2 = 0.501): 62.993 ± 0.15 kg/m3
mass density (299.97 K, 5015.8 kPa, x2 = 0.501): 80.785 ± 0.2 kg/m3
mass density (299.97 K, 6023.7 kPa, x2 = 0.501): 99.216 ± 0.24 kg/m3
mass density (299.97 K, 7004.9 kPa, x2 = 0.501): 117.9 ± 0.29 kg/m3
mass density (299.97 K, 8009.1 kPa, x2 = 0.501): 137.74 ± 0.34 kg/m3
mass density (299.97 K, 9014.3 kPa, x2 = 0.501): 158.299 ± 0.39 kg/m3
mass density (299.97 K, 9993.3 kPa, x2 = 0.501): 178.967 ± 0.43 kg/m3
mass density (299.97 K, 9996.5 kPa, x2 = 0.501): 178.959 ± 0.43 kg/m3
mass density (299.97 K, 10996 kPa, x2 = 0.501): 200.469 ± 0.49 kg/m3
mass density (299.97 K, 11995 kPa, x2 = 0.501): 222.215 ± 0.54 kg/m3
mass density (299.97 K, 12998 kPa, x2 = 0.501): 244.208 ± 0.59 kg/m3
mass density (299.97 K, 13996 kPa, x2 = 0.501): 266 ± 0.65 kg/m3
mass density (299.97 K, 14996 kPa, x2 = 0.501): 287.528 ± 0.7 kg/m3
mass density (299.97 K, 16996 kPa, x2 = 0.501): 329.04 ± 0.8 kg/m3
mass density (299.97 K, 17997 kPa, x2 = 0.501): 348.774 ± 0.84 kg/m3
mass density (299.97 K, 19020 kPa, x2 = 0.501): 368.091 ± 0.89 kg/m3
mass density (299.97 K, 19970 kPa, x2 = 0.501): 385.259 ± 0.93 kg/m3
mass density (324.96 K, 1994 kPa, x2 = 0.2): 23.265 ± 0.056 kg/m3
mass density (324.96 K, 1994.1 kPa, x2 = 0.2): 23.265 ± 0.056 kg/m3
mass density (324.96 K, 3976.6 kPa, x2 = 0.2): 46.775 ± 0.11 kg/m3
mass density (324.96 K, 5997.1 kPa, x2 = 0.2): 70.986 ± 0.17 kg/m3
mass density (324.96 K, 7997.5 kPa, x2 = 0.2): 95.062 ± 0.23 kg/m3
mass density (324.96 K, 9999.3 kPa, x2 = 0.2): 119.106 ± 0.29 kg/m3
mass density (324.96 K, 12001 kPa, x2 = 0.2): 142.924 ± 0.35 kg/m3
mass density (324.96 K, 14002 kPa, x2 = 0.2): 166.343 ± 0.4 kg/m3
mass density (324.96 K, 16004 kPa, x2 = 0.2): 189.249 ± 0.46 kg/m3
mass density (324.96 K, 18002 kPa, x2 = 0.2): 211.461 ± 0.51 kg/m3
mass density (324.96 K, 19964 kPa, x2 = 0.2): 232.536 ± 0.56 kg/m3
mass density (324.98 K, 974.07 kPa, x2 = 0.501): 13.176 ± 0.035 kg/m3
mass density (324.98 K, 1991.5 kPa, x2 = 0.501): 27.367 ± 0.066 kg/m3
mass density (324.98 K, 2996.4 kPa, x2 = 0.501): 41.83 ± 0.1 kg/m3
mass density (324.98 K, 3995.3 kPa, x2 = 0.501): 56.615 ± 0.14 kg/m3
mass density (324.98 K, 4997.2 kPa, x2 = 0.501): 71.872 ± 0.17 kg/m3
mass density (324.98 K, 5995.1 kPa, x2 = 0.501): 87.485 ± 0.21 kg/m3
mass density (324.98 K, 6998.1 kPa, x2 = 0.501): 103.583 ± 0.25 kg/m3
mass density (324.98 K, 7998.2 kPa, x2 = 0.501): 120.002 ± 0.29 kg/m3
mass density (324.98 K, 9001.9 kPa, x2 = 0.501): 136.826 ± 0.33 kg/m3
